Legend:
Type in all cases: in vivo, human
[1] = test system: patient who had loss of taste and smell from COVID-19; assay: Psychophysical smell test, forced-choice three-stimuli stepwise-staircase technique (detection and recognition thresholds for four odors)
Source text: The Patient initially reported their sensory dysfunction as either loss of taste (i.e., flavor) and/or smell function. This subjective response was documented by objective psychophysical measurements of olfactory function administered to each patient by use of a forced-choice, three-stimuli, stepwise-staircase technique in a fixed, controlled design (1, 2). Efficacy of this technique and results of testing were previously documented in a double-blind clinical trial (2). Four odors were used; they were pyridine (dead-fish odor), nitrobenzene (bitter-almond odor), thiophene (petroleum-like odor) and amyl acetate (banana-oil odor). Detection thresholds (DT), and recognition thresholds (RT) values for each odor were determined as previously described (1, 2). Thresholds were converted into bottle units (BU) as previously described (2) and results reported as M of correct responses for each odor in each treatment group. References: (1) Henkin, R. I. Evaluation and treatment of human olfactory dysfunction, in Otolaryngology (English, G. M. Ed.), Lippincott, Philadelphia, 1993, Vol. 2, pp. 1-86. (2) Henkin, R. I., Schecter, P. J., Friedewald, W. T., DeMets, D. L., Raff, M. S. A double blind study of the effects of zinc sulfate on taste and smell dysfunction. Amer. J. Med. Sci. 1976; 272:285-299.
(§1) Theophylline was administered to a patient who had loss of taste and smell from COVID-19. A formulation containing 80 μg of theophylline was administered via two actuations from nasal spray device once per day. Prior to the initial administration of theophylline, a baseline smell test was performed. A follow-up smell test was performed 3 months after the initial administration. […] The patient's detection threshold (DT) and recognition threshold (RT) for pyridine (Pyr), nitrobenzene (NO2B), thiophene (Thio) and amyl acetate (AA) was determined before treatment (pre) and after treatment (3M). In all four odorant tests, the patient's detection threshold and recognition threshold improved. An improvement of 1 bottle unit means that a patient could detect and/or recognize an odorant that was 10 times lower in concentration, when compared to baseline. For example, the recognition threshold (RT) of AA improved by 8 bottle units, also equivalent to an improvement of 8 orders of magnitude. In this case, the patient could detect a concentration of AA that was 108 lower in concentration. Bottle unit numbers that are 5 or lower are considered to be in the range of normal.

[2] = test system: patient who had loss of taste and smell from COVID-19; assay: Side effects during intranasal theophylline treatment; settings: 80 μg theophylline via two actuations from nasal spray device once per day, 3 months
Description: as §1

[3] = test system: patient diagnosed or previously diagnosed with COVID-19 and having at least partial smell or taste loss; assay: Example 1: intranasal theophylline formulation in a patient with smell or taste loss associated with COVID-19
Description: A patient diagnosed or previously diagnosed with COVID-19 and having at least partial smell or taste loss associated with COVID-19 is treated with an intranasally administered a formulation comprising theophylline, which is given once per day, in each naris, for about 30 days, 60 days, or 90 days.
Administration of the formulation produces an increase in the patient's sonic hedgehog levels or cyclic nucleotide levels within about 30 days, 60 days, or 90 days.

[4] = 3 months after initial administration, 80 μg theophylline intranasal once per day, baseline (Pre) 10, 5 or lower is normal
[5] = 3 months after initial administration, 80 μg theophylline intranasal once per day, baseline (Pre) 11, 5 or lower is normal
[6] = 3 months after initial administration, 80 μg theophylline intranasal once per day, baseline (Pre) 12, 5 or lower is normal

In the case of `Cn1c(=O)c2[nH]cnc2n(C)c1=O` [theophylline], the “Detection threshold (DT), thiophene (Thio)” value [1, 4] is reported as 4 bottle units, the “Recognition threshold (RT), thiophene (Thio)” value [1, 4] is reported as 4 bottle units and the “Detection threshold (DT), amyl acetate (AA)” value [1, 5] is reported as 4 bottle units. The “Detection threshold (DT), nitrobenzene (NO2B)” value [1, 5] was 9 bottle units, the “Detection threshold (DT), pyridine (Pyr)” value [1, 5] was 7 bottle units and the “Recognition threshold (RT), pyridine (Pyr)” value [1, 5] was 7 bottle units. For the same molecule, the “Recognition threshold (RT), amyl acetate (AA)” value [1, 6] was 4 bottle units, the “Recognition threshold (RT), nitrobenzene (NO2B)” value [1, 6] was 9 bottle units and the “Improvement of recognition threshold (RT) of AA” value ([1]; 3 months vs baseline, 1 bottle unit = 10 times lower concentration) was 8 bottle units. The “Detection threshold and recognition threshold in all four odorant tests” value ([1]; 3 months vs baseline, pyridine, nitrobenzene, thiophene, amyl acetate) was “improved”, the Side effects [2] was “No side effects were reported” and the “Patient's ability to taste and smell” value ([3]; intranasal once per day in each naris for about 30, 60 or 90 days) was “significant increase”. The “Patient's sonic hedgehog levels or cyclic nucleotide levels” value ([3]; intranasal once per day in each naris, within about 30 days, 60 days, or 90 days) was “increase”.
